ChEMBL document CHEMBL1201862, “PubChem BioAssay data set” (2004)
Values joined by “and” are separate entries in the source; they are usually repeats but may differ in a detail not shown here. Identical values can stand only once.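 Protocol summary: plate cells (96-well), add compound at 5 concentrations, incubate 48 h, interpolate endpoints linearly. GI50: concentration for 50% inhibition of growth.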 Active and inactive are the calls of the source. Rule as the data show it: active = GI50 up to about 1.1 µM and inactive = higher.

Legend:
Test in all cases: NCI anticancer screen, dose series, 48 h
HOP-92 = test system: HOP-92
SN12C = test system: SN12C
LOX IMVI = test system: LOX IMVI
UACC-62 = test system: UACC-62
HT-29 = test system: HT-29
HCT-15 = test system: HCT-15
OVCAR-5 = test system: OVCAR-5
SK-OV-3 = test system: SK-OV-3
HCT-116 = test system: HCT-116
NCI-H522 = test system: NCI-H522
EKVX = test system: EKVX
RXF 393 = test system: RXF 393
OVCAR-3 = test system: OVCAR-3
RPMI-8226 = test system: RPMI-8226
K562 = test system: K562
NCI-H226 = test system: NCI-H226
KM12 = test system: KM12
BT-549 = test system: BT-549
MDA-MB-231 = test system: MDA-MB-231

| SMILES | GI50 (HOP-92) | GI50 (SN12C) | GI50 (LOX IMVI) | GI50 (UACC-62) | GI50 (HT-29) | GI50 (HCT-15) | GI50 (OVCAR-5) | GI50 (SK-OV-3) | GI50 (HCT-116) | GI50 (NCI-H522) | GI50 (EKVX) | GI50 (RXF 393) | GI50 (OVCAR-3) | GI50 (RPMI-8226) | GI50 (K562) | GI50 (NCI-H226) | GI50 (KM12) | GI50 (BT-549) | GI50 (MDA-MB-231) |
| --- | --- | --- | --- | --- | --- | --- | --- | --- | --- | --- | --- | --- | --- | --- | --- | --- | --- | --- | --- |
| CCC(=O)N/N=C(\C=C\c1cccc(O)c1)c1sc(Nc2ccc(C)cc2[N+](=O)[O-])nc1C | 13.7 µM (inactive) | > 100 µM (inactive) | 58.6 µM (inactive) | > 100 µM (inactive) | 18.6 µM (inactive) | 81.8 µM | > 100 µM (inactive) | > 100 µM (inactive) | > 100 µM (inactive) | 45.8 µM (inactive) | > 100 µM (inactive) | 10.8 µM (inactive) | 71.1 µM (inactive) | > 100 µM (inactive) | > 100 µM (inactive) | > 100 µM (inactive) | > 100 µM (inactive) |  |  |
| CN(C(=O)c1ccc2c(c1)sc1c(=O)n(C)c3ccccc3c12)c1ccccc1 | > 100 µM (inactive) | > 100 µM (inactive) | > 100 µM (inactive) | > 100 µM (inactive) | > 100 µM (inactive) | > 100 µM | > 100 µM (inactive) | > 100 µM (inactive) | > 100 µM (inactive) | > 100 µM (inactive) | > 100 µM (inactive) | > 100 µM (inactive) | > 100 µM (inactive) |  | > 100 µM (inactive) | > 100 µM (inactive) | > 100 µM (inactive) | > 100 µM (inactive) | > 100 µM (inactive) |
| COCCN(CCOC)C(=O)COc1c2cc(C(C)(C)C)cc1Cc1cc(C(C)(C)C)cc(c1OCC(=O)N(CCOC)CCOC)Cc1cc(C(C)(C)C)cc(c1OCC(=O)N(CCOC)CCOC)Cc1cc(C(C)(C)C)cc(c1OCC(=O)N(CCOC)CCOC)Cc1cc(C(C)(C)C)cc(c1OCC(=O)N(CCOC)CCOC)C2 |  | 0.851 µM (active) | 1.73 µM (inactive) | 1.18 µM (inactive) | 0.908 µM (active) | 2.81 µM | 5.55 µM (inactive) | 3.05 µM (inactive) | 0.618 µM (active) | 0.655 µM (active) | 0.434 µM (active) | 1.09 µM (active) | 0.288 µM (active) |  | 0.491 µM (active) | 1.28 µM (inactive) | 0.518 µM (active) |  | 1.99 µM (inactive) |
| Oc1cc(-c2ccccc2)c2ccccc2n1 | 5.62 µM (inactive) | 30.9 µM (inactive) | 57.9 µM (inactive) | 48.3 µM (inactive) | > 100 µM (inactive) | 58.9 µM | 64.4 µM (inactive) | 20.5 µM (inactive) | 64.7 µM (inactive) | 20.9 µM (inactive) |  | 36.2 µM (inactive) |  | 67.6 µM (inactive) | 65.5 µM (inactive) | 25.8 µM (inactive) | 71.4 µM (inactive) |  |  |
| COc1ccc2cc(C(C)C(O)c3cc(F)c(F)c(F)c3F)ccc2c1 (stereo not given) | 18.6 µM (inactive) | > 100 µM (inactive) | > 100 µM (inactive) | > 100 µM (inactive) | > 100 µM (inactive) | > 100 µM | > 100 µM (inactive) | > 100 µM (inactive) | > 100 µM (inactive) |  | 45.5 µM (inactive) |  | 98.6 µM (inactive) | > 100 µM (inactive) | 30.8 µM (inactive) | > 100 µM (inactive) |  | > 100 µM (inactive) | > 100 µM (inactive) |
| N=C(N)C1CN(CCc2c[nH]c3ccccc23)C(=O)NC1=O (stereo not given) | > 100 µM (inactive) | > 100 µM (inactive) | > 100 µM (inactive) | > 100 µM (inactive) | > 100 µM (inactive) | > 100 µM | > 100 µM (inactive) | > 100 µM (inactive) | > 100 µM (inactive) |  | > 100 µM (inactive) |  | > 100 µM (inactive) | > 100 µM (inactive) | > 100 µM (inactive) | > 100 µM (inactive) |  | > 100 µM (inactive) | > 100 µM (inactive) |
| CC1OC(OC2C(OC(=O)[C@]34CCC(C)(C)C[C@H]3C3=CC[C@@H]5[C@@]6(C)CC[C@H](OC7OC(C(=O)O)C(O)C(O)C7O)C(C)(C)[C@@H]6CC[C@@]5(C)[C@]3(C)CC4)OCC(O)C2O)C(O)C(O)C1OC1OCC(O)C(O)C1O (stereo not given in full) | 30.6 µM (inactive) and 20.5 µM (inactive) | 22.1 µM (inactive) and 19.4 µM (inactive) | 66.8 µM (inactive) | 39.4 µM (inactive) and 28 µM (inactive) | 15.4 µM (inactive) and 28.2 µM (inactive) | > 100 µM | 48.2 µM (inactive) and 31 µM (inactive) | > 100 µM (inactive) and 82.8 µM (inactive) | 39.9 µM (inactive) and 45.9 µM (inactive) | 45.1 µM (inactive) and 45.5 µM (inactive) | 22.3 µM (inactive) and 30.1 µM (inactive) | > 100 µM (inactive) and 70.1 µM (inactive) | > 100 µM (inactive) |  |  | 43.6 µM (inactive) and 43.9 µM (inactive) |  |  | 11 µM (inactive) and 21.5 µM (inactive) |
| O=C(O)c1ccc(S(=O)(=O)c2ccccc2)c([N+](=O)[O-])c1 | > 100 µM (inactive) | > 100 µM (inactive) | > 100 µM (inactive) | > 100 µM (inactive) | > 100 µM (inactive) | 93.1 µM | > 100 µM (inactive) | > 100 µM (inactive) | > 100 µM (inactive) | > 100 µM (inactive) | > 100 µM (inactive) | > 100 µM (inactive) | > 100 µM (inactive) | > 100 µM (inactive) | > 100 µM (inactive) | > 100 µM (inactive) | > 100 µM (inactive) |  |  |
| CC(=O)NC(CC(C)C)C(=O)NC(Cc1ccccc1)C(=S)N1CCCC1 (stereo not given) | > 100 µM (inactive) | > 100 µM (inactive) | > 100 µM (inactive) | > 100 µM (inactive) | > 100 µM (inactive) | > 100 µM | > 100 µM (inactive) | > 100 µM (inactive) |  | > 100 µM (inactive) | > 100 µM (inactive) | > 100 µM (inactive) | > 100 µM (inactive) | > 100 µM (inactive) | > 100 µM (inactive) | 74.8 µM (inactive) | > 100 µM (inactive) |  |  |
| CCCCCCCCCCCCC(CCCCCCCCCCCC)OP(=O)(O)O | 56.1 µM (inactive) | > 100 µM (inactive) | > 100 µM (inactive) | > 100 µM (inactive) | > 100 µM (inactive) | 88.3 µM | > 100 µM (inactive) | > 100 µM (inactive) | 73.3 µM (inactive) | 84.7 µM (inactive) | > 100 µM (inactive) | > 100 µM (inactive) | > 100 µM (inactive) | 56.6 µM (inactive) | 62.2 µM (inactive) | 75.9 µM (inactive) | > 100 µM (inactive) |  |  |
| COC(=O)C1C=CCC2CCCCC21N1CCCC1 (stereo not given) | 34 µM (inactive) | 78.5 µM (inactive) | > 100 µM (inactive) | > 100 µM (inactive) | 48.1 µM (inactive) | > 100 µM | > 100 µM (inactive) | > 100 µM (inactive) | 46.1 µM (inactive) | 53.8 µM (inactive) | > 100 µM (inactive) | > 100 µM (inactive) | 49.4 µM (inactive) | 42.7 µM (inactive) |  | 87.7 µM (inactive) | 53.6 µM (inactive) |  |  |
| C=C=C(C)C(=O)N(C(C)C)C(C)C | > 100 µM (inactive) | > 100 µM (inactive) | > 100 µM (inactive) | > 100 µM (inactive) | > 100 µM (inactive) | > 100 µM | > 100 µM (inactive) | > 100 µM (inactive) | > 100 µM (inactive) |  | > 100 µM (inactive) |  | > 100 µM (inactive) | > 100 µM (inactive) | > 100 µM (inactive) | > 100 µM (inactive) |  | > 100 µM (inactive) | > 100 µM (inactive) |
